Measured values published in US11618746B2, “Inhibitors of APOL1 and methods of using same” (Vertex Pharmaceuticals Incorporated, priority 2018, dated 2023).

What follows are molecules tested against T1, G1 APOL1 (Homo sapiens, UniProt O14791, I384M/S342G) (assay: Acute APOL1 Thallium Assay with inducible stable clones of HEK 293 cells). Conditions: HEK T-Rex tetracycline-inducible cells expressing G1 APOL1 (clone G1 DC3.25); inhibition of thallium flux rate.
T1 construct: expressed in transfected cells
T1 sequence (O14791 28-398 S342G/I384M): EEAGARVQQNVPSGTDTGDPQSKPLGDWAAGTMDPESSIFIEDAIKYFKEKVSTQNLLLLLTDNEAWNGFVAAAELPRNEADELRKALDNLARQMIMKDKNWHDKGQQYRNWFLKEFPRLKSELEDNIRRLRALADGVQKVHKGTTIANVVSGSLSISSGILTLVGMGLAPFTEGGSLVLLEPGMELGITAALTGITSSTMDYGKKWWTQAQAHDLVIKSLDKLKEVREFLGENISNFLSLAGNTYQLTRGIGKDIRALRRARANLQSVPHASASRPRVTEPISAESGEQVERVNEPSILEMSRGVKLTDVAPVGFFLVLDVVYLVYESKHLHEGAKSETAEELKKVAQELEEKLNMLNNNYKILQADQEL
Assay type: cell-based
In short: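 HEK293 T-Rex cells with tetracycline-inducible G1 APOL1 (clone DC3.25), 26000 cells per well, induced with tetracycline at plating and incubated at 37° C, 5% CO2. Pore activity read on FLIPR as Tl+ influx via fluorescence of AM-ester-loaded thallium-sensitive dye.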

IC50 | Compound
250 to 1000 nM | CN(C(=O)CCc1c(-c2ccc(F)cc2)[nH]c2ccc(F)cc12)C1CCNC1=O (stereo not drawn) [Compound 50]
< 250 nM | O=C(CCc1c(-c2ccccc2)[nH]c2ccc(F)cc12)N[C@@H]1C(=O)NC[C@H]1O [Compound 51]
< 250 nM | O=C(CCc1c(-c2ccccc2)[nH]c2ccc(F)cc12)N[C@H]1CCNC1=O [Compound 52]
250 to 1000 nM | O=C(CCc1c(-c2ccc(F)cc2)[nH]c2ccc(OCc3ccccc3)cc12)N[C@H]1CCNC1=O [Compound 54, 3-[5-benzyloxy-2-(4-fluorophenyl)-1H-indol-3-yl]-N-[(3S)-2-oxopyrrolidin-3-yl]propanamide]
> 1000 nM | O=C(CCc1c(-c2ccc(F)cc2)[nH]c2ccc(O)cc12)N[C@H]1CCNC1=O [Compound 55, 3-[2-(4-fluorophenyl)-5-hydroxy-1H-indol-3-yl]-N-[(3S)-2-oxopyrrolidin-3-yl]propanamide]
< 250 nM | O=C(CCc1c(-c2ccc(F)cc2)[nH]c2c(F)c(F)ccc12)N[C@@H]1C(=O)NC[C@H]1O [Compound 58]
< 250 nM | O=C(CCc1c(-c2ccccc2)[nH]c2c(F)c(F)ccc12)N[C@@H]1C(=O)NC[C@H]1O [Compound 59]
< 250 nM | O=C(CCc1c(-c2ccccc2)[nH]c2c(F)cccc12)N[C@@H]1C(=O)NC[C@H]1O [Compound 61]
< 250 nM | O=C(CCc1c(-c2ccccc2)[nH]c2c(Br)cccc12)N[C@@H]1C(=O)NC[C@H]1O [Compound 70]
< 250 nM | O=C(CCc1c(-c2ccc(F)cc2)[nH]c2c(Cl)cccc12)N[C@H]1CCNC1=O [Compound 72]
< 250 nM | O=C(CCc1c(-c2ccc(F)cc2)[nH]c2c(Cl)cccc12)N[C@@H]1C(=O)NC[C@H]1O [Compound 73]
< 250 nM | O=C(CCc1c(-c2ccc(F)cc2)[nH]c2c(F)cccc12)N[C@H]1CCNC1=O [Compound 75]
< 250 nM | O=C(CCc1c(-c2ccc(F)cc2)[nH]c2c(F)cccc12)N[C@@H]1C(=O)NC[C@H]1O [Compound 76]
> 1000 nM | O=C(CCc1c(-c2ccc(F)cc2)[nH]c2c(F)ccc(F)c12)N[C@H]1CCNC1=O [Compound 78]
< 250 nM | O=C(CCc1c(-c2ccccc2)[nH]c2c(F)c(F)c(F)cc12)N[C@@H]1C(=O)NC[C@H]1O [Compound 80]
< 250 nM | O=C(CCc1c(-c2ccccc2)[nH]c2cc(F)c(F)cc12)N[C@@H]1C(=O)NC[C@H]1O [Compound 82]
< 250 nM | O=C(CCc1c(-c2ccccc2)[nH]c2cc(F)cc(F)c12)N[C@@H]1C(=O)NC[C@H]1O [Compound 85]
< 250 nM | O=C(CCc1c(-c2ccccc2)[nH]c2ccccc12)N[C@@H]1C(=O)NC[C@H]1O [Compound 86]
< 250 nM | O=C(CCc1c(-c2ccc(F)cc2)[nH]c2ccccc12)N[C@@H]1C(=O)NC[C@H]1O [Compound 87, 3-[2-(4-fluorophenyl)-1H-indol-3-yl]-N-[(3S,4R)-4-hydroxy-2-oxo-pyrrolidin-3-yl]propanamide]
< 250 nM | O=C1NC[C@@H](O)[C@@H]1NC(=O)C(F)(F)Cc1c(-c2ccc(F)cc2)[nH]c2c(F)cc(F)cc12 [Compound 95, 3-[5,7-difluoro-2-(4-fluorophenyl)-1H-indol-3-yl]-2,2-difluoro-N-[(3S,4R)-4-hydroxy-2-oxo-pyrrolidin-3-yl]propanamide]
< 250 nM | Cc1c(F)c(F)cc2c(CCC(=O)N[C@@H]3C(=O)NC[C@H]3O)c(-c3ccc(F)cc3)[nH]c12 [Compound 98, 3-[5,6-difluoro-2-(4-fluorophenyl)-7-methyl-1H-indol-3-yl]-N-[(3S,4R)-4-hydroxy-2-oxo-pyrrolidin-3-yl]propanamide]
< 250 nM | Cc1c(F)c(F)cc2c(CCC(=O)N[C@@H]3C(=O)NC[C@H]3O)c(-c3ccccc3)[nH]c12 [Compound 99, 3-(5,6-difluoro-7-methyl-2-phenyl-1H-indol-3-yl)-N-[(3S,4R)-4-hydroxy-2-oxo-pyrrolidin-3-yl]propanamide]
< 250 nM | O=C(CCc1c(-c2ccc(F)cc2)[nH]c2c(F)cc(C(F)(F)F)cc12)N[C@@H]1C(=O)NC[C@H]1O [Compound 101, 3-[7-fluoro-2-(4-fluorophenyl)-5-(trifluoromethyl)-1H-indol-3-yl]-N-[(3S,4R)-4-hydroxy-2-oxo-pyrrolidin-3-yl]propanamide]
< 250 nM | O=C(CCc1c(-c2ccc(OC(F)F)cc2)[nH]c2c(F)cc(F)cc12)N[C@@H]1C(=O)NC[C@H]1O [Compound 102]
< 250 nM | O=C(CCc1c(-c2cccc(F)c2)[nH]c2c(F)cc(F)cc12)N[C@@H]1C(=O)NC[C@H]1O [Compound 103]
< 250 nM | O=C(CCc1c(-c2cc(F)cc(F)c2)[nH]c2c(F)cc(F)cc12)N[C@@H]1C(=O)NC[C@H]1O [Compound 104]

Compound | IC50
O=C(CCc1c(-c2ccc(F)c(F)c2)[nH]c2c(F)cc(F)cc12)N[C@@H]1C(=O)NC[C@H]1O [Compound 105] | < 250 nM
O=C(CCc1c(-c2ccc(F)cc2)[nH]c2c(OC(F)F)cc(F)cc12)N[C@@H]1C(=O)NC[C@H]1O [Compound 107] | < 250 nM
O=C(CCc1c(-c2ccc(F)cc2)[nH]c2ccc(C(F)(F)F)cc12)N[C@@H]1C(=O)NC[C@H]1O [Compound 108, 3-[2-(4-fluorophenyl)-5-(trifluoromethyl)-1H-indol-3-yl]-N-[(3S,4R)-4-hydroxy-2-oxo-pyrrolidin-3-yl]propanamide] | < 250 nM
O=C(CCc1c(-c2ccccc2)[nH]c2cc(F)ccc12)N[C@@H]1C(=O)NC[C@H]1O [Compound 109, 3-(6-fluoro-2-phenyl-1H-indol-3-yl)-N-[(3S,4R)-4-hydroxy-2-oxo-pyrrolidin-3-yl]propanamide] | < 250 nM
O=C(CCc1c(-c2ccccc2)[nH]c2c(C(F)(F)F)cccc12)N[C@@H]1C(=O)NC[C@H]1O [Compound 112, N-[(3S,4R)-4-hydroxy-2-oxo-pyrrolidin-3-yl]-3-[2-phenyl-7-(trifluoromethyl)-1H-indol-3-yl]propanamide] | 250 to 1000 nM
O=C(CCc1c(-c2ccccc2)[nH]c2cccc(F)c12)N[C@@H]1C(=O)NC[C@H]1O [Compound 114, 3-(4-fluoro-2-phenyl-1H-indol-3-yl)-N-[(3S,4R)-4-hydroxy-2-oxo-pyrrolidin-3-yl]propanamide] | < 250 nM
N#Cc1ccc(-c2[nH]c3ccccc3c2CCC(=O)N[C@@H]2C(=O)NC[C@H]2O)cc1 [Compound 116, 3-[2-(4-cyanophenyl)-1H-indol-3-yl]-N-[(3S,4R)-4-hydroxy-2-oxo-pyrrolidin-3-yl]propanamide] | < 250 nM
O=C(CCc1c(-c2ccc(OC(F)(F)F)cc2)[nH]c2ccccc12)N[C@@H]1C(=O)NC[C@H]1O [Compound 118] | < 250 nM
O=C(CCc1c(-c2ccc(Cl)c(F)c2)[nH]c2ccccc12)N[C@@H]1C(=O)NC[C@H]1O [Compound 120] | < 250 nM
COc1ccc(-c2[nH]c3ccccc3c2CCC(=O)N[C@@H]2C(=O)NC[C@H]2O)cc1 [Compound 121] | < 250 nM
Cc1ccc(-c2[nH]c3ccccc3c2CCC(=O)N[C@@H]2C(=O)NC[C@H]2O)c(F)c1 [Compound 122] | < 250 nM
O=C(CCc1c(-c2ccc(C(F)(F)F)cc2)[nH]c2ccccc12)N[C@@H]1C(=O)NC[C@H]1O [Compound 123] | < 250 nM
Cc1ccc(-c2[nH]c3ccccc3c2CCC(=O)N[C@@H]2C(=O)NC[C@H]2O)cc1 [Compound 124] | < 250 nM
Cc1cc(-c2[nH]c3ccccc3c2CCC(=O)N[C@@H]2C(=O)NC[C@H]2O)ccc1F [Compound 125] | < 250 nM
Cc1ccc(-c2[nH]c3ccccc3c2CCC(=O)N[C@@H]2C(=O)NC[C@H]2O)cc1F [Compound 126] | < 250 nM
O=C(CCc1c(-c2cc(F)cc(F)c2)[nH]c2ccccc12)N[C@@H]1C(=O)NC[C@H]1O [Compound 127, 3-[2-(3,5-difluorophenyl)-1H-indol-3-yl]-N-[(3S,4R)-4-hydroxy-2-oxo-pyrrolidin-3-yl]propanamide] | 250 to 1000 nM
O=C(CCc1c(-c2ccc(Cl)cc2)[nH]c2ccccc12)N[C@@H]1C(=O)NC[C@H]1O [Compound 128, 3-[2-(4-chlorophenyl)-1H-indol-3-yl]-N-[(3S,4R)-4-hydroxy-2-oxo-pyrrolidin-3-yl]propanamide] | < 250 nM
O=C(CCc1c(-c2ccc(F)c(F)c2)[nH]c2ccccc12)N[C@@H]1C(=O)NC[C@H]1O [Compound 129, 3-[2-(3,4-difluorophenyl)-1H-indol-3-yl]-N-[(3S,4R)-4-hydroxy-2-oxo-pyrrolidin-3-yl]propanamide] | < 250 nM
O=C(CCc1c(-c2ccc(C(F)F)cc2)[nH]c2ccccc12)N[C@@H]1C(=O)NC[C@H]1O [Compound 131, 3-[2-[4-(difluoromethyl)phenyl]-1H-indol-3-yl]-N-[(3S,4R)-4-hydroxy-2-oxo-pyrrolidin-3-yl]propanamide] | < 250 nM
